This note sets out measurements from patent USRE43688E1 (The Regents of the University of California, priority 2006, dated 2012).

Data set [1] in a line: Blood analysis of the monkey PET study (plasma parent and metabolites). In kind it is in vivo, Rhesus monkey. How it is done:
A blood analysis of the monkey PET study subsequent to administration of ^18F-mefway was performed to observe levels of breakdown in the blood similar to methods described for ^18F-fallypride. Venous whole blood (approx. 1 mL) was obtained at various time-points (5, 10, 15, 30, 45, 60, 90, 120, 150 and 180 min) during the course of the PET study. The samples were centrifuged in a Microfuge centrifuge (Eppendorf Centrifuge 5415C) at 12,000 rpm for 5 min. Plasma, 0.6 mL was separated from each sample and 0.1 mL was counted from each sample. […]. The remaining 0.5 mL of plasma at each time point was combined with 0.1 mL NaHCO3 and mixed well and subsequently extracted with 0.4 mL of ethyl acetate. The ethyl acetate was separated and 0.1 mL of ethyl acetate layer and 0.1 mL of aqueous layer were counted for analysis of ^18F-mefway in blood. […] The developed TLC plate was dried, apposed overnight to phosphor screen, and were read using the Phosphor Cyclone Imager (Packard Instruments Co., Boston Mass.). The amount of ^18F-mefway was evaluated in digital light units (DLU/mm^2) using Opti-Quant acquisition and analysis program (Packard Instruments Co.). All blood samples were counted for radioactivity in a Packard Gamma Counter 5000 series.

The nature of data set [2]: Lipophilicity (log P) by partitioning between n-octanol and Tris-HCl buffer. Type of data set: physicochemical. Conditions: n-octanol and 50 M Tris-HCl (pH 7.4) buffer. Here is the method:
Lipophilicity (log P) was measured to evaluate lipid solubility of ^18F-mefway. The lipophilicity was measured by partitioning between n-octanol and […] Tris-HCl (pH 7.4) buffer. Into three tubes 2 mL of n-octanol and 2 mL of buffer were added and vortexed. To this mixture 370 kBq of ^18F-mefway was added. The mixture was again vortexed and allowed to settle. The layers were separated and the aqueous layer was centrifuged again to remove n-octanol contamination. An aliquot of both layers was counted for concentration of ^18F-mefway using the Cobra Quantum well counter (Packard Instruments Co., Boston, Mass.). Log P was taken as the concentration of ^18F-mefway in n-octanol over concentration of buffer.

Another data set has as its target T1, 5-HT1A receptors (Macaca mulatta, UniProt F7GIU0).
T1 construct: from tissue; host or cells: brain of a living anaesthetised Rhesus monkey (PET)
T1 sequence (F7GIU0 1-421): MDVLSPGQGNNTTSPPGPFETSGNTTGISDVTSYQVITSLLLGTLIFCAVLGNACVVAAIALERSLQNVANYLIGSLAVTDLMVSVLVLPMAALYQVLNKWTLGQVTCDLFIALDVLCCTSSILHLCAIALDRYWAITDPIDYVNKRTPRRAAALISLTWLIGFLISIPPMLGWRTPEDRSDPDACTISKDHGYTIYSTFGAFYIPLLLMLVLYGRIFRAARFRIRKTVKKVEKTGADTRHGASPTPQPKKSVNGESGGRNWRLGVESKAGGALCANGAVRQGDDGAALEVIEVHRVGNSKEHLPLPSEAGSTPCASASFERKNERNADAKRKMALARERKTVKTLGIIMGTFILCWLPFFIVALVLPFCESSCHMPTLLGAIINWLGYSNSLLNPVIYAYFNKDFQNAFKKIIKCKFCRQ
Nature of the data set: Monkey PET study with ^18F-mefway. Type of data set: in vivo, Rhesus monkey. Here is the method:
In vivo studies were performed in a Rhesus monkey. The monkey was anesthetized using ketamine (10 mg/kg) and xylazine (0.5 mg/kg) and maintained on 1-1.5% isoflurane. Two intravenous catheters were placed, one on each arm, for administration of the radiopharmaceutical and for obtaining blood samples during the study. Vital signs of the money were monitored carefully. […] The head of the animal was placed in the gantry of an ECAT EXACT HR+PET scanner and positioned in place with the use of adhesive tape. A transmission scan using a Ge-68/Ga-68 rod source was acquired prior to administration of the radiopharmaceutical to correct for tissue attenuation of the coincident radiation. A dynamic sequence of scans was acquired for 180 minutes after administration of 130 MBq of ^18F-Mefway intravenously (specific activity=74-111 GBq/μmol). Data in the final form were expressed in units of percent-injected dose/mL or kBq/mL. Areas showing maximal radioligand binding in the frontal cortex, temporal cortex, dorsal raphe and other braain regions were delineated in the images. The PET images were coregistered with an MRI image template of the rhesus monkey in order to provide anatomical detail as reported previously. This MRI template of the rhesus (Macaca mulatta) brain is an average of 6 monkeys with T1-weighted MR scans. PET image summed till 120 min duration was used for the coregistration. Coregistration of the PET-MR data was carried out by VINCI program (CPS Innovations, Inc.). Time activity curves were obtained for all of these regions.

A short description of data set [3]: Defluorination of ^18F-mefway in in vitro and in vivo experiments. Conditions: numerous in vitro and in vivo experiments.
In data set [4] the target is T2, 5HT1A receptor (Rattus norvegicus, UniProt P19327).
T2 construct: from tissue; host or cells: 10 um horizontal brain slices of Sprague-Dawley rats
T2 sequence (P19327 1-422): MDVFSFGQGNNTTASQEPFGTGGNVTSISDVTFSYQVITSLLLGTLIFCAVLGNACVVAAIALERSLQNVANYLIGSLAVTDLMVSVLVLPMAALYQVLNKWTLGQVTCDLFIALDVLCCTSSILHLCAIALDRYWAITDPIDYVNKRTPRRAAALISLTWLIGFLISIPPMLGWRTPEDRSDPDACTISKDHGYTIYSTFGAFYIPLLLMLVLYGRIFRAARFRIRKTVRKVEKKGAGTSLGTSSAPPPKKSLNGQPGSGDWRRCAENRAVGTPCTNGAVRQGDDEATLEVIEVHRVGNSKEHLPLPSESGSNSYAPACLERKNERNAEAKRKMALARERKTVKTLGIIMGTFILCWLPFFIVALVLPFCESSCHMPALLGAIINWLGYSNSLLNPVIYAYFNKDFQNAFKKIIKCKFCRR
As to the kind of experiment: Competitive binding assay in rat brain slices using ^18F-mefway as the radioligand (autoradiography). Conditions: 167 kBq/mL ^18F-mefway, 37° C. 1 hour, measured autoradiographically in the hippocampus (FIG. 5), read-out: Binding affinity (IC50) against ^18F-mefway. How it is done: In vitro binding affinity of mefway was measured in rat brain slices labeled with fluorine-18. The brains from Sprague-Dawley rats were extracted and frozen in isopentane at −20° C. Several 10 μm thick horizontal rat brain slices were pre-incubated at room temperature for 15 minutes in 50 mM Tris-HCl buffer (pH 7.4). […] After incubation slides were washed twice with cold buffer for one minute, dipped in cold water, air dried, and exposed to phosphor storage screens for 24 hours. Autoradiographs were generated using the Packard Phosphor Cyclone Imager, and the apposed phosphor screens were read by the Cyclone Storage Phosphor System. […] Binding affinity (IC50) was calculated using KELL program (BioSoft Inc).

The target of data set [5] is T2, 5HT1A receptor. As to the kind of experiment: Competition study of serotonin with ^18F-mefway in rat brain slices. Type of data set: binding. Here is the method:
Male Sprague-Dawley rats (200-250 g) were anesthetized and decapitated, the brain was rapidly removed and frozen in isopentane at −20° C. Horizontal slices were cut 10 μm thick using a Leica 1850 cryotome. Slices contained the regions of cortex, hippocampus, and other regions known to contain 5-HT1A receptors. Brain slices were stored at −20° C. Brain slices were preincubated in 50 mM Tris-HCl buffer (pH 7.4) for 10 mins. The slices were then incubated with 130-148 kBq/mL of ^18F-mefway at 37° C. for 1 hr. […] After incubation, slides were washed twice (one minute for both washes) with ice-cold buffer. Slides were then quickly dipped in cold deionized water, air dried, and exposed to a phosphor screen for 24 hours. The autoradiographs were generated using the Phosphor Cyclone Imager (Packard Instruments Co., Boston Mass.). The amount of binding was evaluated in digital light units (DLU/mm^2) using OptiQuant accusation and analysis program (Packard Instruments Co.) Autoradiographs were quantified using a computer-based image analysis system (OptiQuant Version 4.0 Packard Instruments Co., Boston Mass.).

Data set [6] concerns the target T2, 5HT1A receptor. As to the kind of experiment: Rodent studies with trans-^18F-mefway, rat brain slices. Type of data set: binding. Conditions: cerebellum as reference region. The text has this: (§1) Binding of trans-^18F-mefway was evident in several 5HT1A receptor-rich regions, including hippocampus and cortex. Using cerebellum as a reference region, rat brain slices gave ratios of hippocampus/cerebellum=55 and cortex/cerebellum=17. Studies in transgenic mouse models of Alzheimer's disease show >90% loss in 5HT1a receptor binding (data not shown).

Data set [7] addresses T3, 5HT1a receptor (Mus musculus, UniProt Q64264).
T3 construct: from tissue
T3 sequence (Q64264 1-421): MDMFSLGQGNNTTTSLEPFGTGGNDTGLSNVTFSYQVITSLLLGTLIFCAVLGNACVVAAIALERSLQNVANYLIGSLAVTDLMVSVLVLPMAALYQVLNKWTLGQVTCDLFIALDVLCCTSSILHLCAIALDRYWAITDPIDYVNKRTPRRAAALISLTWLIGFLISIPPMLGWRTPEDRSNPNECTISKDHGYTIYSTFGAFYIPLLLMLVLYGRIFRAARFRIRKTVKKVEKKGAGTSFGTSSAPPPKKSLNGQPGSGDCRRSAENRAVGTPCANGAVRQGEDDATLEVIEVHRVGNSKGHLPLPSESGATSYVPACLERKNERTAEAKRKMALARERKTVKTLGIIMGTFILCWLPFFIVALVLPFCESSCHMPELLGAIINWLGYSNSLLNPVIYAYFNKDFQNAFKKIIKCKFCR
Nature of the data set: trans-^18F-mefway binding in transgenic mouse models of Alzheimer's disease. To be noted: transgenic mouse models of Alzheimer's disease (data not shown).
Description: as §1

Structures are written as SMILES. “And” between values parts separate entries of the source, which are not always exact repeats. Equal values may be shown once.

`O=C(O)C1CCC(C[18F])CC1` (stereo not shown) [^18F-4-fluoromethylcyclohexane carboxylic acid]: the “plateau of acid metabolite (aqueous fraction) in plasma” value in data set [1] (after 50 mins post-injection) is given as 50-60%.
For `COc1ccccc1N1CCN(CCN(C(=O)C2CCC(C[18F])CC2)c2ccccn2)CC1` (stereo not shown) [^18F-mefway, N-{2-[4-(2-methoxyphenyl)piperazinyl]ethyl}-N-(2-pyridyl)-N-(4-^18F-fluoromethylcyclohexane)carboxamide], the “Lipophilicity (Log P)” value in data set [2] is listed as 2.62±0.06. On 5-HT1A receptors (PET), the “raphe ratio (to cerebellum)” value is 3.5 and the “time of peak of ratios, second group of regions” value was “around 80 mins”. For the same compound, the “ratio of hippocampus to cerebellum” value on 5-HT1A receptors (PET, at pseudoequilibrium) is “exceeded 9”. Moreover, on 5-HT1A receptors (PET, brain uptake after i.v. administration), the “time to reach uptake level in various regions” value was “less than 2 mins”. The “hippocampus to cerebellum ratio, peak” value at 5-HT1A receptors (PET, peak) is 9.7. Further, on 5-HT1A receptors (PET, reached in less than 2 mins), the “uptake level in various brain regions” value was “greater than 0.03 % injected dose/mL”. Besides, the “ratio to cerebellum, thalamus, striatum and raphe” value on 5-HT1A receptors (PET, third group of regions) is recorded as 2-3.5. For the same compound, the “initial activity in the cerebellum still present” value at 5-HT1A receptors (after 3 hrs) is recorded as “about 6%”. Moreover, the “vital signs of the monkey” value on 5-HT1A receptors (anesthetized Rhesus monkey during PET study) is on record as “did not show any unusual deviations from baseline values”. Further, on 5-HT1A receptors (end of the 3 hr scan), the “hippocampus to cerebellum ratio at end of scan” value turned out to be 8.4 and the “initial activity in the hippocampus still specifically bound” value is on record as “approx 60%”. On 5-HT1A receptors (hippocampus (and cortical hot spot), PET, 130 MBq i.v.), the “time of approach to pseudoequilibrium / plateau of ratio in receptor-rich regions” value is given as “around 80 mins”. In data set [1] (3 hours post injection), the “^18F-mefway remaining unmetabolized in plasma” value is given as “approximately 30%”. In addition, the defluorination result in data set [3] is given as “virtually no deflourination”.
For the compound `COc1ccccc1N1CCN(CCN(C(=O)C2CCC(CF)CC2)c2ccccn2)CC1` (stereo not shown) [mefway, N-{2-[4-(2-methoxyphenyl)piperazinyl]ethyl}-N-(2-pyridyl)-N-(4-fluoromethylcyclo-hexane)-carboxamide], at 5HT1A receptor [4], the IC50 (in general, the concentration that gives 50% inhibition) is 32.1 nM and 25.7 nM.
Take `NCCc1c[nH]c2ccc(O)cc12` [serotonin]: at 5HT1A receptor [5] (cortex), the “displaced ^18F-mefway binding in cortex” value is listed as above 70%. For the same compound, the “displaced ^18F-mefway binding in hippocampus” value on 5HT1A receptor [5] (hippocampus) is reported as above 85%.
On to `COc1ccccc1N1CCN(CCN(C(=O)C2CCC(CF)CC2)c2ccccn2)CC1` (stereo not drawn) [trans-^18F-mefway], for which, on 5HT1A receptor [6], the cortex/cerebellum ratio is listed as 17 and the hippocampus/cerebellum ratio was found to be 55. For the same compound, the “loss in 5HT1a receptor binding” value on 5HT1a receptor [7] is given as above 90%.
